What was measured:
Rhizoctonia solani = test: Example F rice sheath blight; format: in vivo; settings: Rhizoctonia solani, 144 h, 100 PPM; read-out: disease control rating, Ex. F
Summary of the method: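 Compounds, dissolved in acetone at 6% of final volume, were suspended at 100 or 20 ppm in purified water with 250 ppm polyhydric alcohol ester surfactant (TREM 014). Rice seedlings were sprayed with this suspension to run-off.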

MUSTARD SPP. = test: Test E; format: in vivo, Brassica spp.
[1] = system: Erysiphe graminis f. sp. tritici; test: Example D wheat powdery mildew; format: in vivo; settings: Blumeria graminis, 144 h; 100 PPM; read-out: disease control rating, Ex. D
Summary of the method: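 Compounds were dissolved in acetone (6% of final volume), then suspended at 100 or 20 ppm in purified water containing 250 ppm TREM 014 surfactant. Wheat seedlings were sprayed with this suspension to run-off.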

GREEN FOXTAIL = test: Test E; format: in vivo, Setaria viridis
Puccinia recondita = test: Example G wheat leaf rust; format: in vivo; settings: 100 PPM, read-out: disease control rating, Ex. G
BLACK NIGHTSHAD = test: Test E; format: in vivo, Solanum nigrum
CMN CHICKWEED = test: Test E; format: in vivo, Stellaria media
Phytophthora infestans = test: whole plant or invertebrate; format: in vivo; settings: Phytophthora infestans, in Solanum lycopersicum, read-out: disease control rating, Ex. H, 100 PPM
Plasmorpara viticola = test: Example I grape downy mildew; format: in vivo; settings: read-out: disease control rating, Ex. I
Summary of the method: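 Grape seedlings sprayed to run-off; test suspension 100 or 20 ppm compound, acetone 6% v/v final, 250 ppm TREM 014 in purified water.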

Pythium aphanadermatum = test: Example J cucumber damping off; format: in vivo; design: key to phytotoxicity entry, Ex. J: P: disease control was not measured due to phytoxicity; settings: 5 kg/ha; for pest or weed control at 5000 g/ha: Pythium, 336 h, read-out: disease control rating, Ex. J
Summary of the method: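 This cucumber damping-off test used soil and seeds infested with a sand–cereal preparation carrying mycelium of Pythium aphanadermatum. Incubation took place in a growth chamber held at 30° C. for 14 days. Afterwards, the extent of disease was scored as a disease control rating.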

WILD RADISH = test: Test E; format: in vivo, Raphanus raphanistrum

Compound | pest or weed control at 100 ppm (Rhizoctonia solani) [%] | plant response (MUSTARD SPP.; POSTEMERGENCE 0064 GM/HA) [%] | plant response (MUSTARD SPP.; POSTEMERGENCE 0125 GM/HA) [%] | plant response (MUSTARD SPP.; POSTEMERGENCE 0250 GM/HA) [%] | plant response (MUSTARD SPP.; POSTEMERGENCE 0500 GM/HA) [%] | pest or weed control at 100 ppm [1] [%] | plant response (GREEN FOXTAIL; POSTEMERGENCE 0064 GM/HA) [%] | plant response (GREEN FOXTAIL; POSTEMERGENCE 0125 GM/HA) [%] | plant response (GREEN FOXTAIL; POSTEMERGENCE 0250 GM/HA) [%] | plant response (GREEN FOXTAIL; POSTEMERGENCE 0500 GM/HA) [%] | pest or weed control at 100 ppm (Puccinia recondita) [%] | plant response (BLACK NIGHTSHAD; POSTEMERGENCE 0064 GM/HA) [%] | plant response (BLACK NIGHTSHAD; POSTEMERGENCE 0125 GM/HA) [%] | plant response (BLACK NIGHTSHAD; POSTEMERGENCE 0250 GM/HA) [%] | plant response (BLACK NIGHTSHAD; POSTEMERGENCE 0500 GM/HA) [%] | plant response (CMN CHICKWEED; POSTEMERGENCE 0064 GM/HA) [%] | plant response (CMN CHICKWEED; POSTEMERGENCE 0125 GM/HA) [%] | plant response (CMN CHICKWEED; POSTEMERGENCE 0250 GM/HA) [%] | plant response (CMN CHICKWEED; POSTEMERGENCE 0500 GM/HA) [%] | pest or weed control at 100 ppm (Phytophthora infestans) [%] | other results
C=C(c1ccccc1)C(O)(Cn1cncn1)c1ccc(Cl)cc1 (stereo not shown) [Example 51, 2-(4-Chlorophenyl)-3-phenyl-1-(1H-1,2,4-triazol-1-yl)-3-buten-2-ol] | 100 | 0 | 30 | 30 | 30 | 100 | 0 | 0 | 0 | 0 | 100 | 0 | 0 | 40 | 60 | 0 | 0 | 0 | 0 | 0 | plant response (MUSTARD SPP.; PREEMERGENCE 0500 GM/HA): 0%; plant response (GREEN FOXTAIL; PREEMERGENCE 0500 GM/HA): 100%; plant response (BLACK NIGHTSHAD; PREEMERGENCE 0500 GM/HA): 100%; plant response (CMN CHICKWEED; PREEMERGENCE 0500 GM/HA): 0%; pest or weed control at 100 ppm (Plasmorpara viticola): 0%; phytotoxicity entry, Ex. J (Pythium aphanadermatum): P; plant response (WILD RADISH; POSTEMERGENCE 0064 GM/HA): 0%; plant response (WILD RADISH; POSTEMERGENCE 0125 GM/HA): 30%; plant response (WILD RADISH; POSTEMERGENCE 0250 GM/HA): 30%; plant response (WILD RADISH; POSTEMERGENCE 0500 GM/HA): 60%; plant response (WILD RADISH; PREEMERGENCE 0500 GM/HA): 0%
C=C(c1ccccc1)C(O)(Cn1cncn1)c1ccc(F)cc1F (stereo not shown) [Example 52, 2-(2,4-Difluorophenyl)-3-phenyl-1-(1H-1,2,4-triazol-1-yl)-3-buten-2-ol] | 81 | 0 | 0 | 20 | 50 | 94 | 0 | 0 | 40 | 75 | 100 | 0 | 0 | 10 | 70 | 0 | 0 | 0 | 0 | 0 | plant response (MUSTARD SPP.; PREEMERGENCE 0250 GM/HA): 50%; plant response (GREEN FOXTAIL; PREEMERGENCE 0250 GM/HA): 100%; plant response (BLACK NIGHTSHAD; PREEMERGENCE 0250 GM/HA): 100%; plant response (CMN CHICKWEED; PREEMERGENCE 0250 GM/HA): 0%; pest or weed control at 100 ppm (Plasmorpara viticola): 0%; pest or weed control at 5000 g/ha (Pythium aphanadermatum): 0%; plant response (WILD RADISH; POSTEMERGENCE 0064 GM/HA): 10%; plant response (WILD RADISH; POSTEMERGENCE 0125 GM/HA): 10%; plant response (WILD RADISH; POSTEMERGENCE 0250 GM/HA): 50%; plant response (WILD RADISH; POSTEMERGENCE 0500 GM/HA): 80%; plant response (WILD RADISH; PREEMERGENCE 0250 GM/HA): 50%
C=C(c1ccc(F)cc1)C(O)(Cn1cncn1)c1ccc(F)cc1F (stereo not shown) [Example 4, 2-(2,4-Difluorophenyl)-3-(4-fluorophenyl)-1-(1H-1,2,4-triazol-1-yl)-3-buten-2-ol] | 100 | 20 | 40 | 40 | 80 | 100 | 0 | 20 | 20 | 80 | 100 | 10 | 30 | 70 | 90 | 0 | 0 | 0 | 0 | 0 | plant response (MUSTARD SPP.; PREEMERGENCE 0500 GM/HA): 50%; plant response (GREEN FOXTAIL; PREEMERGENCE 0500 GM/HA): 100%; plant response (BLACK NIGHTSHAD; PREEMERGENCE 0500 GM/HA): 100%; plant response (CMN CHICKWEED; PREEMERGENCE 0500 GM/HA): 0%; pest or weed control at 100 ppm (Plasmorpara viticola): 81%; pest or weed control at 5000 g/ha (Pythium aphanadermatum): 0%; plant response (WILD RADISH; POSTEMERGENCE 0064 GM/HA): 20%; plant response (WILD RADISH; POSTEMERGENCE 0125 GM/HA): 60%; plant response (WILD RADISH; POSTEMERGENCE 0250 GM/HA): 80%; plant response (WILD RADISH; POSTEMERGENCE 0500 GM/HA): 90%; plant response (WILD RADISH; PREEMERGENCE 0500 GM/HA): 50%
C=C(c1ccc(F)cc1)C(O)(Cn1cncn1)c1ccccc1F (stereo not shown) [Example 644] | 100 | 20 | 20 | 50 | 50 | 100 | 30 | 30 | 50 | 50 | 100 | 0 | 0 | 10 | 20 | 0 | 0 | 0 | 0 | 23 | plant response (MUSTARD SPP.; PREEMERGENCE 0500 GM/HA): 0%; plant response (GREEN FOXTAIL; PREEMERGENCE 0500 GM/HA): 100%; plant response (BLACK NIGHTSHAD; PREEMERGENCE 0500 GM/HA): 0%; plant response (CMN CHICKWEED; PREEMERGENCE 0500 GM/HA): 20%; pest or weed control at 100 ppm (Plasmorpara viticola): 0%; pest or weed control at 5000 g/ha (Pythium aphanadermatum): 0%; plant response (WILD RADISH; POSTEMERGENCE 0064 GM/HA): 20%; plant response (WILD RADISH; POSTEMERGENCE 0125 GM/HA): 30%; plant response (WILD RADISH; POSTEMERGENCE 0250 GM/HA): 50%; plant response (WILD RADISH; POSTEMERGENCE 0500 GM/HA): 80%; plant response (WILD RADISH; PREEMERGENCE 0500 GM/HA): 0%

— patent US4965280A, “Antifungal carbinols” (E. I. Du Pont de Nemours and Company, priority 1989, dated 1990)
